# Measured values: article PMC10537604, “Development and Assessment of 1,5–Diarylpyrazole/Oxime Hybrids Targeting EGFR and JNK–2 as Antiproliferative Agents: A Comprehensive Study through Synthesis, Molecular Docking, and Evaluation” (Molecules, 2023)
# Where two headings read alike, the source gives them in different places.
# How the values were obtained:
# [1] = test system: human myelogenous leukemia cell line K562; test: WST-8 antiproliferative assay, K562; type: cell-based; details: Homo sapiens
# Description: (§1) Compounds 7a–j, 8a–j, 9a–c, and 10a–c were evaluated for in vitro anticancer activities against five different cancer cell lines, namely, human colorectal adenocarcinoma cell lines DLD-1, human cervical cancer cell line Hela, human pancreatic cancer cell line SUIT-2, human myelogenous leukemia cell line K562, and human hepatocellular carcinoma cell line HepG2 using WST-8 assay at concentrations of 100 µM to investigate the growth inhibition percent (GI%) of each compound using daunorubicin as a reference drug. […]. […] So, as a conclusion on the SAR study of those compounds as antiproliferative agents, the oxime moiety potentiated the anticancer activity and electron donating groups on R1 and R2 played an important role on this activity. Moreover, the sulfamoyl moiety on R3 seems to play a potential role in the activity of the prepared compounds (Table 1).
# (§2) All selected compounds and daunorubicin were recorded as the minimum concentration required to inhibit half cell growth (IC50) and the results are listed in Table 2.
# (§3) Evaluation of anticancer activity was performed according to the standard water-soluble tetrazolium-8 (WST-8) assay at the Faculty of Engineering, Yamagata University, Yonezawa, Japan, using an MTP-310 absorbance microplate reader. The EGFR inhibitory assay was carried out at the Faculty of Engineering, Yamagata University, Yonezawa, Japan, according to the protocol enzyme linked immunosorbent assay (ELISA) kits (Douset sandwich ELISA test, recombinant mouse EGFR). The JNK-2 inhibitory assay was performed at the Faculty of Engineering, Yamagata University, Yonezawa, Japan, according to the protocol of enzyme-linked immunosorbent assay (ELISA), the assay was carried out using the JNK-2 kit (Simple Step ELISA, pT183/Y185, Abcam Company, Cambridge, CB2 0AX, UK). Apoptosis and cell cycle analysis was performed at Faculty of medicine, Yamagata University, Yamagata, Japan, using BD FACS melody. Molecular docking was performed at the Nano Medical Engineering Laboratory, RIKEN Cluster for Pioneering Researchers, RIEKN, Japan, using ICM-Pro 3.8 software (MolSoft L.L.C., San Diego, CA, USA).
# (§4) According to the standard water-soluble tetrazolium-8 (WST-8) assay, the current synthesized compounds have been tested for their anticancer activities against different five cancer cell lines; DLD-1, Hela, K562, SUIT-2, and HepG2 and daunorubicin was used as reference drug by the WST-8 assay. The five cells were maintained in a suspension culture, (Dulbecco’s modified eagle medium (DMEM) for SUIT-2, Hela, and HepG2 or PRIM for K562 and DLD), supplemented with 5% FBS (Fetal Bovine Serum) containing 1% of a penicillin-streptomycin (1:1) mixture. A 100 μL aliquot of cells (10,000 cells/mL) was added to a 96 well plate and incubated for 24 h at 37 °C in a humidified incubator containing 5% CO2 in the air. […] Then A 10 μL WST-8 solution (mixture of WST-8 and 1-methoxy PMS) was added to each well and the incubation continued for 3 h. The visible absorbance at 450 nm and 630 nm as the reference wavelength of each well was quantified using an MTP-310 absorbance microplate reader. Daunorubicin was used as a positive control. The results of cytotoxicity were recorded as growth inhibition percentages and as IC50 values.
# [2] = test system: human colorectal adenocarcinoma cell line DLD-1; test: WST-8 antiproliferative assay, DLD-1; type: cell-based
# Description: as §1, §2, §3
# (§5) According to the standard water-soluble tetrazolium-8 (WST-8) assay, the current synthesized compounds have been tested for their anticancer activities against different five cancer cell lines; DLD-1, Hela, K562, SUIT-2, and HepG2 and daunorubicin was used as reference drug by the WST-8 assay. The five cells were maintained in a suspension culture, (Dulbecco’s modified eagle medium (DMEM) for SUIT-2, Hela, and HepG2 or PRIM for K562 and DLD), supplemented with 5% FBS (Fetal Bovine Serum) containing 1% of a penicillin-streptomycin (1:1) mixture. A 100 μL aliquot of cells (10,000 cells/mL) was added to a 96 well plate and incubated for 24 h at 37 °C in a humidified incubator containing 5% CO2 in the air. After 24 h, a 10 μL aliquot of test compound (concentrations varying in the range of 10–150 µM) was added to each of the 96 wells and incubated for 24 h. Then A 10 μL WST-8 solution (mixture of WST-8 and 1-methoxy PMS) was added to each well and the incubation continued for 3 h. The visible absorbance at 450 nm and 630 nm as the reference wavelength of each well was quantified using an MTP-310 absorbance microplate reader. Daunorubicin was used as a positive control. The results of cytotoxicity were recorded as growth inhibition percentages and as IC50 values.
# [3] = test system: human pancreatic cancer cell line SUIT-2; test: WST-8 antiproliferative assay, SUIT-2; type: cell-based
# Description: as §1, §2, §3, §5
# [4] = test system: human cervical cancer cell line Hela; test: WST-8 antiproliferative assay, Hela; type: cell-based; details: for inhibition at 100 µM: read-out: Growth Inhibition (GI%) Hela; for IC50: read-out: IC50 Hela
# Description: as §1, §2, §3, §4
# [5] = K562, 100 µM, WST-8 assay, read-out: Growth Inhibition (GI%) K562
# [6] = K562, WST-8 assay, six concentrations 1-100 µM, read-out: IC50 K562
# [7] = DLD-1, 100 µM, WST-8 assay, read-out: Growth Inhibition (GI%) DLD-1
# [8] = SUIT-2, 100 µM, WST-8 assay, read-out: Growth Inhibition (GI%) SUIT-2
# [9] = WST-8 assay, six concentrations 1-100 µM
"IC50 [1, 6] [µM]",melting point [°C],"IC50 [4, 9] [µM]",Compound,"inhibition at 100 µM [1, 5] [%]","inhibition at 100 µM [2, 7] [%]","inhibition at 100 µM [3, 8] [%]","inhibition at 100 µM ([4]; 100 µM, WST-8 assay) [%]","inhibition at 100 µM ([1]; K562, read-out: Growth Inhibition (GI%) K562) [%]","IC50 ([1]; K562, read-out: IC50 K562, WST-8 assay, six concentrations 1-100 µM) [µM]","inhibition at 100 µM ([2]; DLD-1, read-out: Growth Inhibition (GI%) DLD-1) [%]","IC50 ([2]; DLD-1, read-out: IC50 DLD-1) [µM]","inhibition at 100 µM ([3]; SUIT-2, read-out: Growth Inhibition (GI%) SUIT-2) [%]",inhibition at 100 µM [4] [%],IC50 [4] [µM]
22,167 to 170,–,"COc1cc(/C(C)=N/O)ccc1OC(=O)c1cc(-c2ccccc2)n(-c2ccccc2)n1 [Compound 8a, (E)–4–(1–(Hydroxyimino)ethyl)2–methoxyphenyl 1,5–diphenyl–1H–pyrazole–3–carboxylate]",94,25.7,77,33,–,–,–,–,–,–,–
13,123 to 125,32,"COc1cc(/C(C)=N/O)ccc1OC(=O)c1cc(-c2ccc(C)cc2)n(-c2ccccc2)n1 [Compound 8b, (E)–4–(1–(Hydroxyimino)ethyl)–2–methoxyphenyl 1–phenyl–5–p–tolyl–1H–pyrazole–3–carboxylate]",99,92,102,60,–,–,–,–,–,–,–
20,115 to 118,22,"COc1ccc(-c2cc(C(=O)Oc3ccc(/C(C)=N/O)cc3OC)nn2-c2ccccc2)cc1OC [Compound 8e, (E)–4–(1–(Hydroxyimino)ethyl)–2–methoxyphenyl 5–(3,4–dimethoxy phenyl)–1–phenyl–1H–pyrazole–3–carboxylate]",93,29.2,83,77,–,–,–,–,–,–,–
15.6,122 to 124,22,"COc1cc(/C(C)=N/O)ccc1OC(=O)c1cc(-c2ccccc2)n(-c2ccc(S(N)(=O)=O)cc2)n1 [Compound 8f, (E)–4–(1–(Hydroxyimino)ethyl)–2–methoxyphenyl 5–phenyl–1–(4–sulfamoyl phenyl)–1H–pyrazole–3–carboxylate]",76,72.9,95,107,–,–,–,–,–,–,–
7.6,–,8,"COc1cc(/C(C)=N/O)ccc1OC(=O)c1cc(-c2ccc(C)cc2)n(-c2ccc(S(N)(=O)=O)cc2)n1 [Compound 8g, (E)–4–(1–(Hydroxyimino)ethyl)–2–methoxyphenyl 1–(4–sulfamoylphenyl)–5–p–tolyl–1H–pyrazole–3–carboxylate]",87,85.8,96,78,–,–,–,–,–,–,–
21,125 to 127,74,"COc1ccc(-c2cc(C(=O)Oc3ccc(/C(C)=N/O)cc3OC)nn2-c2ccc(S(N)(=O)=O)cc2)cc1 [Compound 8h, (E)–4–(1–(Hydroxyimino)ethyl)–2–methoxyphenyl 5–(4–methoxyphenyl)–1–(4–sulfamoyl phenyl)–1H–pyrazole–3–carboxylate]",78,52.3,73,7,–,–,–,–,–,–,–
71,–,13,"COc1cc(/C(C)=N/O)ccc1OC(=O)c1cc(-c2ccc(Cl)cc2)n(-c2ccc(S(N)(=O)=O)cc2)n1 [Compound 8i, (E)–4–(1–(Hydroxyimino)ethyl)–2–methoxyphenyl 5–(4–chlorophenyl)–1–(4–sulfamoyl phenyl)–1H–pyrazole–3–carboxylate]",97,34,98,100,–,–,–,–,–,–,–
16,–,–,"C/C(=N\O)c1ccc(NC(=O)c2cc(-c3ccccc3)n(-c3ccc(S(N)(=O)=O)cc3)n2)cc1 [Compound 10a, (E)–N–(4–(1–(Hydroxyimino)ethyl)phenyl)–5–phenyl–1–(4–sulfamoylphenyl)–1H–pyrazole–3–carboxamide]",84,99,88,0,–,–,–,–,–,–,–
–,110 to 112,–,"COc1ccc(-c2cc(C(=O)Nc3ccc(/C(C)=N/O)cc3)nn2-c2ccc(S(N)(=O)=O)cc2)cc1 [Compound 10b, (E)–N–(4–(1–(Hydroxyimino)ethyl)phenyl)–5–(4–methoxyphenyl)–1–(4–sulfamoylphenyl)–1H–pyrazole–3–carboxamide]",84,72.5,50,2,–,–,–,–,–,–,–
29,–,5,"COc1ccc(-c2cc(C(=O)Nc3ccc(/C(C)=N/O)cc3)nn2-c2ccc(S(N)(=O)=O)cc2)cc1OC [Compound 10c, (E)–5–(3,4–Dimethoxyphenyl)–N–(4–(1–(hydroxyimino)ethyl)phenyl)–1–(4–sulfamoyl phenyl)–1H–pyrazole–3–carboxamide]",87,92.4,103,75,–,–,–,–,–,–,–

Compound,"IC50 [1, 6] [µM]",melting point [°C],"IC50 [4, 9] [µM]","inhibition at 100 µM [1, 5] [%]","inhibition at 100 µM [2, 7] [%]","inhibition at 100 µM [3, 8] [%]","inhibition at 100 µM ([4]; 100 µM, WST-8 assay) [%]","inhibition at 100 µM ([1]; K562, read-out: Growth Inhibition (GI%) K562) [%]","IC50 ([1]; K562, read-out: IC50 K562, WST-8 assay, six concentrations 1-100 µM) [µM]","inhibition at 100 µM ([2]; DLD-1, read-out: Growth Inhibition (GI%) DLD-1) [%]","IC50 ([2]; DLD-1, read-out: IC50 DLD-1) [µM]","inhibition at 100 µM ([3]; SUIT-2, read-out: Growth Inhibition (GI%) SUIT-2) [%]",inhibition at 100 µM [4] [%],IC50 [4] [µM]
"COc1cc(/C(C)=N/O)ccc1OC(=O)c1cc(-c2ccc(Cl)cc2)n(-c2ccccc2)n1 [Compound 8d, (E)–4–(1–(Hydroxyimino)ethyl)–2–methoxyphenyl 5–(4–chlorophenyl)–1–phenyl–1H–pyrazole–3–carboxylate]",–,106 to 109,–,–,–,–,–,95,9,72,14.4,77,48,57
